Data: US20250127162A1, “METHODS AND COMPOSITIONS FOR CONTROLLING PESTS IN RICE” (Globachem NV, priority 2022, published 2025)

Test system: Diabrotica speciosa
Assay: Dry bean field trials, Diabrotica speciosa damage and yield (Example 4)
Assay type: in vivo
Settings: 150 L water/ha, two applications 7 d apart; for % Damage, % UNCK: 28 DAB, Lambda-cyhalothrin 100 at 0.15 L/ha; for Yield: plot
Excerpt: All applications were made with an EC formulation containing 650 g/L of pelargonic acid (e.g., 685 g/L of 95% purity pelargonic acid), an anionic emulsifier and a branched fatty acid ester solvent.
Diabrotica speciosa is a major pest in rice.
Dry Beans—Diabrotica speciosa

With `CC1(C)[C@H](C(=O)O[C@H](C#N)c2cccc(Oc3ccccc3)c2)[C@@H]1/C=C(\Cl)C(F)(F)F` (racemic) [Lambda-cyhalothrin 100, Lambda-cyhalothrin, reference compound] the “% Damage, % UNCK” value (Trial 1, dry bean) was 80.55b % UNCK, the Yield (Trial 1, dry bean) was 2.55a Ton/ha and the “% Damage, % UNCK” value (Trial 2, dry bean) was 81.41c % UNCK. For the same molecule, the Yield (Trial 2, dry bean) was 2.29ab Ton/ha.
